Target: T1, glutaminase (GAC) (Homo sapiens, UniProt O94925)
T1 sequence (O94925 55-598 isoform O94925-3 limits assumed): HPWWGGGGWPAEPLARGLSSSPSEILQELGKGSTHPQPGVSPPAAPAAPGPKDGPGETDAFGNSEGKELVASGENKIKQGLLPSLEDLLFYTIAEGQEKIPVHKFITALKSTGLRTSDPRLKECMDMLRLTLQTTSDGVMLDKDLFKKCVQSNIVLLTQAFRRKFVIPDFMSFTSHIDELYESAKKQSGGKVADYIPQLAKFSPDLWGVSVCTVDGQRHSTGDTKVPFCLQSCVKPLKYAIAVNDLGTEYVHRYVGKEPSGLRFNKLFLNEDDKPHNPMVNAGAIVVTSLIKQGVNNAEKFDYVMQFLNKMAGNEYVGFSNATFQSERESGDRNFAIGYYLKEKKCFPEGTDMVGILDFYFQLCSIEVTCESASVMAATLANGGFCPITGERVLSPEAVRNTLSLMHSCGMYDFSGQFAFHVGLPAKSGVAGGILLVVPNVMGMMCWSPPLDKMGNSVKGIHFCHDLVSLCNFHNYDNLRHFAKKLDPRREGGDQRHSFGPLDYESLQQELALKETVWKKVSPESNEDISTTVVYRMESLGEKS
Assay: Glutaminase (GAC) coupled endpoint enzymatic assay (glutamate dehydrogenase/diaphorase/resazurin, Ex544/Em590)
Type: biochemical
Conditions: inhibition of glutaminase, tested in an assay of Example A or Example B; class symbols A-E
Source text: In certain embodiments, exemplary compounds of Formula I include the compounds described in Table 1 and in the Examples. A compound described herein may be tested for its ability to inhibit glutaminase, e.g., by an assay as described in the Examples. For simplicity, the inhibition activity of these compounds is represented as an IC50 tested in an assay of Example A or Example B in Table 1. […] “N/A” refers to compounds wherein the IC50 is unavailable.
In this example, the enzymatic activity of glutaminase is measured through a coupled endpoint assay. Glutamine and phosphate are supplied to GAC at a concentration equal to Km and AC50, respectively, and GAC concentration is adjusted to give a linear reaction for 60 minutes. The glutamate produced is converted to 2-OG by a kinetic excess of glutamate dehydrogenase. This second step is configured for 2× Km for NAD, since excess NAD is inhibitory. However, a kinetic excess of the third coupling enzyme, diaphorase, recycles NAD from NADH to keep the NAD concentration constant during the timecourse of the assay. Diaphorase, also supplied in kinetic excess, oxidizes NADH produced by GDH back to NAD with the concomitant reduction of rezasurin to the highly fluorescent resorufin. Resorufin in measured after the assay is stopped with SDS by Ex544/Em590. A reduction in the signal indicates inhibition of some component of the coupled enzyme system. Prospective hits are counterscreened against GDH/diaphorase alone to remove hits to the coupling enzyme system in a second assay.
2. Buffers 2× Buffer (300 mM NaCl, 100 mM HEPES pH 8.5, 0.1% BSA, 0.5 mM EDTA, 100 mM sodium phosphate pH 8.5) 5× Substrate Mix (1× Buffer final concentration, with 13 mM glutamine, 100 μM resazurin, 50 μg/ml diaphorase) 1.2× Enzyme Mix (1× Buffer final concentration, with 0.875 μg/ml GAC, 1.56 mM NAD, 6.25 units/ml GDH) Stop Mix (6% SDS in ddH2O) Reaction Procedure 1. Add 1 μl compound in 100% DMSO 2. Add 40 μl of Enzyme Mix and incubate for 60 minute at room temperature 3. Add 10 μl of Substrate Mix to start reaction 4. Stop reaction with 25 μl of 6% SDS and read Ex544 Em 590

Compound | IC50
O=C(Cc1cc2ccccc2[nH]1)Nc1nnc([C@H]2CCC[C@H](c3nnc(NC(=O)Cc4cc5ccccc5[nH]4)s3)C2)s1 [Compound 34] | 100 to 500 nM
Cc1ccccc1CC(=O)Nc1nnc([C@H]2CCC[C@H](c3nnc(NC(=O)Cc4ccccc4C)s3)C2)s1 [Compound 83, N,N′-(5,5′-((1S,3S)-cyclohexane-1,3-diyl)bis(1,3,4-thiadiazole-5,2-diyl))bis(2-o-tolylacetamide)] | 100 to 500 nM
CCCC(=O)Nc1nnc([C@H]2CCC[C@H](c3nnc(NC(=O)CCC)s3)C2)s1 [Compound 37, N,N′-(5,5′-((1S,3S)-cyclohexane-1,3-diyl)bis(1,3,4-thiadiazole-5,2-diyl))dibutyramide] | 100 to 500 nM
CN1CCC(c2cccc(CC(=O)Nc3nnc([C@H]4CCC[C@H](c5nnc(NC(=O)Cc6cccc(C7CCN(C)CC7)c6)s5)C4)s3)c2)CC1 [Compound 362, N,N′-(5,5′-((1S,3S)-cyclohexane-1,3-diyl)bis(1,3,4-thiadiazole-5,2-diyl))bis(2-(3-(1-methylpiperidin-4-yl)phenyl)acetamide)] | < 100 nM
CS(=O)(=O)c1ccc(CC(=O)Nc2nnc([C@H]3CCC[C@H](c4nnc(NC(=O)Cc5ccc(S(C)(=O)=O)cc5)s4)C3)s2)cc1 [Compound 66, N,N′-(5,5′-((1S,3S)-cyclohexane-1,3-diyl)bis(1,3,4-thiadiazole-5,2-diyl))bis(2-(4-(methylsulfonyl)phenyl)acetamide)] | < 100 nM
O=C(Cc1ccccc1F)Nc1nnc([C@H]2CCC[C@H](c3nnc(NC(=O)Cc4ccccc4F)s3)C2)s1 [Compound 87, N,N′-(5,5′-((1S,3S)-cyclohexane-1,3-diyl)bis(1,3,4-thiadiazole-5,2-diyl))bis(2-(2-fluorophenyl)acetamide)] | < 100 nM
COCCOc1ccnc(CC(=O)Nc2nnc([C@H]3CCC[C@H](c4nnc(NC(=O)Cc5cc(OCCOC)ccn5)s4)C3)s2)c1 [Compound 353] | < 100 nM
O=C(Cc1cccc(OC(F)(F)F)c1)Nc1nnc([C@H]2CCC[C@H](c3nnc(NC(=O)Cc4ccccn4)s3)C2)s1 [Compound 364, 2-(pyridin-2-yl)-N-(5-((1S,3S)-3-(5-(2-(3-(trifluoromethoxy)phenyl)acetamido)-1,3,4-thiadiazol-2-yl)cyclohexyl)-1,3,4-thiadiazol-2-yl)acetamide] | < 100 nM
O=C(Nc1nnc([C@H]2CC[C@H](c3nnc(NC(=O)[C@@H](O)c4ccccc4)s3)C2)s1)[C@@H](O)c1ccccc1 [Compound 379] | < 100 nM
COc1cc(CC(=O)Nc2nnc([C@H]3CCC[C@H](c4nnc(NC(=O)Cc5ccc(F)c(OC)c5)s4)C3)s2)ccc1F [Compound 78, N,N′-(5,5′-((1S,3S)-cyclohexane-1,3-diyl)bis(1,3,4-thiadiazole-5,2-diyl))bis(2-(4-fluoro-3-methoxyphenyl)acetamide)] | 100 to 500 nM
COc1ccc(CC(=O)Nc2nnc([C@H]3CC[C@H](c4nnc(NC(=O)Cc5cccc(N6CC(F)(F)C6)n5)s4)C3)s2)cn1 [Compound 358] | < 100 nM
N#Cc1ccc(CC(=O)Nc2nnc([C@H]3CCC[C@H](c4nnc(NC(=O)Cc5ccc(C#N)cc5)s4)C3)s2)cc1 [Compound 74, N,N′-(5,5′-((1S,3S)-cyclohexane-1,3-diyl)bis(1,3,4-thiadiazole-5,2-diyl))bis(2-(4-cyanophenyl)acetamide)] | 100 to 500 nM
O=C(Cc1cccc(Cl)c1)Nc1nnc([C@H]2CCC[C@H](c3nnc(NC(=O)Cc4cccc(Cl)c4)s3)C2)s1 [Compound 43, N,N′-(5,5′-((1S,3S)-cyclohexane-1,3-diyl)bis(1,3,4-thiadiazole-5,2-diyl))bis(2-(3-chlorophenyl)acetamide)] | 100 to 500 nM
O=C(Cc1ccc(F)cc1)Nc1nnc([C@H]2CCC[C@H](c3nnc(NC(=O)Cc4ccc(F)cc4)s3)C2)s1 [Compound 88, N,N′-(5,5′-((1S,3S)-cyclohexane-1,3-diyl)bis(1,3,4-thiadiazole-5,2-diyl))bis(2-(4-fluorophenyl)acetamide)] | 100 to 500 nM
N#Cc1cccc(CC(=O)Nc2nnc([C@H]3CCC[C@H](c4nnc(NC(=O)Cc5cccc(C6CCNCC6)c5)s4)C3)s2)c1 [Compound 355] | < 100 nM

Next, values leading:

IC50 | Compound
< 100 nM | CS(=O)(=O)c1cccc(CC(=O)Nc2nnc([C@H]3CCC[C@H](c4nnc(NC(=O)Cc5cccc(S(C)(=O)=O)c5)s4)C3)s2)c1 [Compound 54, N,N′-(5,5′-((1S,3S)-cyclohexane-1,3-diyl)bis(1,3,4-thiadiazole-5,2-diyl))bis(2-(3-(methylsulfonyl)phenyl)acetamide)]
< 100 nM | CC(=O)Nc1cccc(CC(=O)Nc2nnc([C@H]3CCC[C@H](c4nnc(NC(=O)Cc5cccc(NC(C)=O)n5)s4)C3)s2)n1 [Compound 104, N,N′-(5,5′-((1S,3S)-cyclohexane-1,3-diyl)bis(1,3,4-thiadiazole-5,2-diyl))bis(2-(6-acetamidopyridin-2-yl)acetamide)]
< 100 nM | O=C(Cc1cccc(OC(F)(F)F)c1)Nc1nnc([C@H]2CC[C@H](c3nnc(NC(=O)Cc4cccc(N5CC(F)(F)C5)n4)s3)C2)s1 [Compound 373]
< 100 nM | COc1cccc(CC(=O)Nc2nnc([C@H]3CCC[C@H](c4nnc(NC(=O)Cc5cccc(OC)c5)s4)C3)s2)c1 (single isomer, unassigned) [Compound 71]
< 100 nM | O=C(Cc1ccccn1)Nc1nnc([C@H]2CCC[C@H](c3nnc(NC(=O)Cc4ccccn4)s3)C2)s1 (single isomer, unassigned) [Compound 14]
< 100 nM | CN(C)c1ccc(CC(=O)Nc2nnc([C@H]3CCC[C@H](c4nnc(NC(=O)Cc5ccc(N(C)C)cc5)s4)C3)s2)cc1 [Compound 31, N,N′-(5,5′-((1S,3S)-cyclohexane-1,3-diyl)bis(1,3,4-thiadiazole-5,2-diyl))bis(2-(4-(dimethylamino)phenyl)acetamide)]
< 100 nM | O=C(Cc1cccc(OC(F)(F)F)c1)Nc1nnc([C@H]2CCC[C@H](c3nnc(NC(=O)[C@@H](O)c4ccccc4)s3)C2)s1 [Compound 372, (S)-2-hydroxy-2-phenyl-N-(5-((1S,3S)-3-(5-(2-(3-(trifluoromethoxy)phenyl)acetamido)-1,3,4-thiadiazol-2-yl)cyclohexyl)-1,3,4-thiadiazol-2-yl)acetamide]
< 100 nM | O=C(Cc1cccc(N2CC(F)(F)C2)n1)Nc1nnc([C@H]2CCC[C@H](c3nnc(NC(=O)CC4CC4)s3)C2)s1 [Compound 349, 2-cyclopropyl-N-(5-((1S,3S)-3-(5-(2-(6-(3,3-difluoroazetidin-1-yl)pyridin-2-yl)acetamido)-1,3,4-thiadiazol-2-yl)cyclohexyl)-1,3,4-thiadiazol-2-yl)acetamide]
< 100 nM | O=C(Cc1cccc(N2CC(F)(F)C2)n1)Nc1nnc([C@H]2CCC[C@H](c3nnc(NC(=O)[C@@H](O)c4ccccc4)s3)C2)s1 [Compound 387, (S)—N-(5-((1S,3S)-3-(5-(2-(6-(3,3-difluoroazetidin-1-yl)pyridin-2-yl)acetamido)-1,3,4-thiadiazol-2-yl)cyclohexyl)-1,3,4-thiadiazol-2-yl)-2-hydroxy-2-phenylacetamide]
< 100 nM | N#Cc1cccc(CC(=O)Nc2nnc([C@H]3CCC[C@H](c4nnc(NC(=O)Cc5cccc(N6CC(N)C6)n5)s4)C3)s2)c1 [Compound 366, 2-(6-(3-aminoazetidin-1-yl)pyridin-2-yl)-N-(5-((1S,3S)-3-(5-(2-(3-cyanophenyl)acetamido)-1,3,4-thiadiazol-2-yl)cyclohexyl)-1,3,4-thiadiazol-2-yl)acetamide]
< 100 nM | N#Cc1ccccc1CC(=O)Nc1nnc([C@H]2CCC[C@H](c3nnc(NC(=O)Cc4ccccc4C#N)s3)C2)s1 [Compound 72, N,N′-(5,5′-((1S,3S)-cyclohexane-1,3-diyl)bis(1,3,4-thiadiazole-5,2-diyl))bis(2-(2-cyanophenyl)acetamide)]
